Laboratory results as given in patent publication US6001997A, “Cephalosporins and homologues, preparations and pharmaceutical compositions” (priority 1990, dated 1999).
≈ marks a conversion by molar mass, not a printed value. Counter-ions that a name gives are not always drawn. Like-named read-outs stand apart in the source and are kept apart here.

Columns and labels:
E. coli (NCTC 1048) = experiment: MIC values (minimum inhibitory concentration) against a sample E.coli organism; assay type: cell-based
Source text: (§1) The following Examples illustrate the preparation of compounds of the invention and intermediates thereto.

S. aureus (Oxford) = experiment: MIC values (minimum inhibitory concentration) against a sample S.aureus organism; assay type: cell-based; settings: in vitro
Source text: as §1

[1] = Escherichia coli, NCTC1048, in vitro, E. coli (NCTC 1048), read-out: MIC
[2] = Staphylococcus aureus, read-out: MIC

| Molecule | MIC (E. coli (NCTC 1048); [1]) [µg/mL] | MIC (S. aureus (Oxford); [2]) [µg/mL] | MIC (E. coli (NCTC 1048); Escherichia coli, NCTC1048) [µg/mL] | MIC (E. coli (NCTC 1048); in vitro, E. coli (NCTC 1048)) [µg/mL] | MIC (S. aureus (Oxford)) [µg/mL] |
| --- | --- | --- | --- | --- | --- |
| CO/N=C(\C(=O)N[C@@H]1C(=O)N2C(C(=O)[O-])=C(C3CCCCO3)CS[C@H]12)c1csc(N)n1.[Na+] (mixture of isomers) [Example 3, Sodium (6R,7R)-7-[2-(2-Aminothiazol-4-yl)-2-(Z)-methoxyiminoacetamido]-3-[(RS) -tetrahydropyran-2-yl]-ceph-3-em-4-carboxylate] | – | 1 | 2 | – | – |
| CO/N=C(\C(=O)N[C@@H]1C(=O)N2C(C(=O)[O-])=C(C3CC[C@@H](C)O3)CS[C@H]12)c1csc(N)n1.[Na+] (mixture of isomers) [Example 27, Sodium (6R,7R)-7-12-(2-aminothiazol-4-yl)-2-(Z)-methoxy-iminoacetamidol-3-[(5R,2SR)-5-methyltetrahydrofuran-2-yl]ceph-3-em-4-carboxylate] | – | – | – | 4.00 | 1.00 |
| sodium 7- [2- (2-aminothiazol-4-yl)-2- (Z)-methoxyimino-acetamido]-3- (tetrahydrofuran-2-yl) -1-carba-1-dethiaceph-3-em-4-carboxylate [Example 24] | – | – | – | 0.12 | 1.00 |
| CO/N=C(\C(=O)N[C@@H]1C(=O)N2C(C(=O)O)=C(C3CCCO3)CS[C@H]12)c1csc(N)n1 (stereo partly drawn) [Example 1, Sodium (6R,7R)-7-[2-(2-Aminothiazol-4-yl)-2-(Z)-methoxy-iminoacetamido]-3-[(RS)-tetrahydrofuran-2-yl]ceph-3-em-4-carboxylate] | 0.5 | 1 | – | – | – |
| N[C@@H](C(=O)N[C@@H]1C(=O)N2C(C(=O)[O-])=C([C@@H]3CCCO3)CS[C@H]12)c1ccc(O)cc1.[Na+] [Example 22, Sodium (6R,7R)-7-[(R)-2-Amino-2-(4-hydroxyphenyl)acetamido]-3-[(S)-tetrahydrofuran-2-yl]ceph-3-em-4-carboxylate] | – | 0.25 | 8 | – | – |
| CO/N=C(\C(=O)N[C@@H]1C(=O)N2C(C(=O)O)=C([C@@H]3CCCO3)CS[C@H]12)c1csc(N)n1 [Example 7, Sodium (6R,7R)-7-[2-(2-aminothiazol-4-yl)-2-(Z)-methoxy-iminoacetamido]-3-[(S)-tetrahydrofuran-2-yl]ceph-3-em-4-carboxylate] | 0.5 | 1 | – | – | – |

The next lines start with results.

| MIC (E. coli (NCTC 1048); [1]) [µg/mL] | MIC (S. aureus (Oxford); [2]) [µg/mL] | Molecule | MIC (E. coli (NCTC 1048); Escherichia coli, NCTC1048) [µg/mL] | MIC (E. coli (NCTC 1048); in vitro, E. coli (NCTC 1048)) [µg/mL] | MIC (S. aureus (Oxford)) [µg/mL] |
| --- | --- | --- | --- | --- | --- |
| 1 (≈ 2.21 µM) | 4 (≈ 8.82 µM) | CO/N=C(\C(=O)N[C@@H]1C(=O)N2C(C(=O)O)=C(C3CCOC3)CS[C@H]12)c1csc(N)n1 (some centres unmarked) [Example 13] | – | – | – |
| 1 | 0.5 | CO/N=C(\C(=O)N[C@@H]1C(=O)N2C(C(=O)O)=C([C@H]3CCCO3)CS[C@H]12)c1csc(N)n1 [Example 9, sodium (6R,7R)-7-[2-(2-aminothiazol-4-yl)-2-(Z)-methoxy-iminoacetamido]-3-[(R)-tetrahydrofuran-2-yl]ceph-3-em-4-carboxylate] | – | – | – |
| 16 | 1 | CC/C=C(\C(=O)N[C@@H]1C(=O)N2C(C(=O)O)=C([C@@H]3CCCO3)CS[C@H]12)c1csc(N)n1 [Example 18, sodium (6R,7R)-7-[2-(2-aminothiazol-4-yl)-(Z)-pent-2-enamido]-3-[(S)-tetrahydrofuran-2-yl]ceph-3-em-4-carboxylate] | – | – | – |
| 0.5 (≈ 1.14 µM) | 0.25 (≈ 0.569 µM) | Nc1nc(/C(=N/O)C(=O)N[C@@H]2C(=O)N3C(C(=O)O)=C(C4CCCO4)CS[C@H]23)cs1 (stereo partly drawn) [Example 5, (6R,7R)-7-[2-(2-Aminothiazol-4-yl)-2-(Z)-hydroxyiminoacet-amido]-3-[(RS)-tetrahydrofuran-2-yl]ceph-3-em-4-carboxylic acid] | – | – | – |
| > 32 | 0.5 | CO/N=C(\C(=O)N[C@@H]1C(=O)N2C(C(=O)O)=C([C@@H]3CCCO3)CS[C@H]12)c1ccco1 [Example 28, Sodium (6R,7R)-7-[2-(furan-2-yl)-2-(Z)-methoxyimino-acetamido]-3-[(S)-tetrahydrofuran-2-yl]ceph-3-em-4-carboxylate] | – | – | – |
| 1 | 2 | COC[C@@H]1CCC(C2=C(C(=O)O)N3C(=O)[C@@H](NC(=O)/C(=N\OC)c4csc(N)n4)[C@H]3SC2)O1 (stereo partly drawn) [Example 17, sodium (6R,7R)-7-[2-(2-aminothiazol-4-yl)-2-(Z)-methoxyiminoacetamido]-3-(5-methoxymethyltetrahydrofuran-2-yl)ceph-3-em-4-carboxylate] | – | – | – |
| 0.25 | 8 | Nc1nc(/C(=N/OCC(=O)O)C(=O)N[C@@H]2C(=O)N3C(C(=O)O)=C(C4CCCO4)CS[C@H]23)cs1 (stereo partly drawn) [Example 21, (6R,7R)-7-[2-(2-aminothiazol-4-yl)-2-(Z)-carboxymethoxy-iminoacetamido]-3-[(RS)-tetrahydrofuran-2-yl]-ceph-3-em-4-carboxylic acid, disodium salt] | – | – | – |
